Measured values: patent US9073855B2, “BCL-2 selective apoptosis-inducing agents for the treatment of cancer and immune diseases” (AbbVie Inc., priority 2008, dated 2015)
pKi: −log10 of the molar value.

Assays:
[1] = biological target: GST-Bcl-2 (Homo sapiens, UniProt P10415); test: TR-FRET binding assay, GST-Bcl-2 with F-Bak peptide probe; details: for pKi: TR-FRET Binding Affinity
How it was run: (§1)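 Ki was derived with Wang's equation for competitive binding of two ligands. The read-out was time-resolved fluorescence after a 3 h room-temperature incubation, using a Tb-labelled antibody donor and the F-Bak peptide acceptor (excitation 340/35 nm). Test compounds entered as DMSO serial dilutions starting at 50 μM, which was the 2× concentration.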

[2] = biological target: GST-Bcl-XL (Homo sapiens, UniProt Q07817); test: TR-FRET binding assay, GST-Bcl-XL with F-Bak peptide probe; details: TR-FRET Binding Affinity
GST-Bcl-XL, sequence (Q07817 whole entry): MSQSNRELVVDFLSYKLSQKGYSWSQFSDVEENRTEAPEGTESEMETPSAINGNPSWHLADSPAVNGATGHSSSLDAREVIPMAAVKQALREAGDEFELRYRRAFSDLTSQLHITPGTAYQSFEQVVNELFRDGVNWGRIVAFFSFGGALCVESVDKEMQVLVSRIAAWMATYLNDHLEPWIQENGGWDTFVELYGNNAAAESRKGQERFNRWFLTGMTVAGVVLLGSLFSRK
How it was run: as §1

[3] = TR-FRET, Bcl-XL Ki divided by Bcl-2 Ki
[4] = GST-Bcl-XL, F-Bak peptide probe

GST-Bcl-2, sequence (P10415 whole entry): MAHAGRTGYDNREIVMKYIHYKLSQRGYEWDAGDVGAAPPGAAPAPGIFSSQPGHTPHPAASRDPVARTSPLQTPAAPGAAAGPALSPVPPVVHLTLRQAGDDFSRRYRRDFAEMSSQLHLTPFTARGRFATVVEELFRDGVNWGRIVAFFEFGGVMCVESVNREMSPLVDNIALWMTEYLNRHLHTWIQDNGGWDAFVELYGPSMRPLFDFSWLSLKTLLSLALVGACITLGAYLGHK

## CC1(C)CCC(CN2CCN(c3ccc(C(=O)NS(=O)(=O)c4cnc(OCC5CCC(C)(O)CC5)c(Cl)c4)c(Oc4cccc5[nH]ncc45)c3)CC2)=C(c2ccc(Cl)cc2)C1 (stereo not drawn) [Example 494, N-({5-chloro-6-[(trans-4-hydroxy-4-methylcyclohexyl)methoxy]pyridin-3-yl}sulfonyl)-4-(4-{[2-(4-chlorophenyl)-4,4-dimethylcyclohex-1-en-1-yl]methyl}piperazin-1-yl)-2-(1H-indazol-4-yloxy)benzamide]
[1]
  pKi: > 11.00
[1]; [3]
  Binding selectivity ratio (Bcl-XL Ki/Bcl-2 Ki): >1556.6
[2]
  pKi: 7.81

## CC1(C)CCC(CN2CCN(c3ccc(C(=O)NS(=O)(=O)c4cnc(OC[C@H]5CC[C@H](O)CC5)c(Cl)c4)c(Oc4cccc5[nH]ncc45)c3)CC2)=C(c2ccc(Cl)cc2)C1 [Example 421, Trans-N-({5-chloro-6-[(4-hydroxycyclohexyl)methoxy]pyridin-3-yl}sulfonyl)-4-(4-{[2-(4-chlorophenyl)-4,4-dimethylcyclohex-1-en-1-yl]methyl}piperazin-1-yl)-2-(1H-indazol-4-yloxy)benzamide]
[1]; GST-Bcl-2, F-Bak peptide probe
  pKi: 10.59
[1]; ratio of TR-FRET Ki values, Bcl-XL over Bcl-2
  Binding selectivity ratio (Bcl-XL Ki/Bcl-2 Ki): 2089.5
[2]; [4]
  pKi: 7.27

## CN(C)CCOc1cccc(-c2ccc(Cl)cc2)c1CN1CCN(c2ccc(C(=O)NS(=O)(=O)c3ccc(NCC4CCOCC4)c(S(=O)(=O)C(F)(F)F)c3)c(Oc3ccccc3)c2)CC1 [Example 124, 4-[4-({4′-chloro-3-[2-(dimethylamino)ethoxy]-1,1′-biphenyl-2-yl}methyl)piperazin-1-yl]-2-phenoxy-N-({4-[(tetrahydro-2H-pyran-4-ylmethyl)amino]-3-[(trifluoromethyl)sulfonyl]phenyl}sulfonyl)benzamide]
[1]; GST-Bcl-2, F-Bak peptide probe
  pKi: 9.47
[2]; [4]
  pKi: 7.13

## O=C(NS(=O)(=O)c1ccc(NCC2CCOCC2)c([N+](=O)[O-])c1)c1ccc(N2CCN(Cc3ccccc3-c3ccc(Cl)cc3)CC2)cc1Oc1cccc2ccccc12 [Example 34, 4-{4-[(4′-chloro-1,1′-biphenyl-2-yl)methyl]piperazin-1-yl}-2-(1-naphthyloxy)-N-({3-nitro-4-[(tetrahydro-2H-pyran-4-ylmethyl)amino]phenyl}sulfonyl)benzamide]
[1]; GST-Bcl-2, F-Bak peptide probe
  pKi: 8.70
[2]; [4]
  pKi: 7.06

## O=C(NS(=O)(=O)c1ccc(NCCc2ccncc2)c([N+](=O)[O-])c1)c1ccc(N2CCN(Cc3ccccc3-c3ccc(Cl)cc3)CC2)cc1Oc1ccccc1 [Example 169, 4-{4-[(4′-chloro-1,1′-biphenyl-2-yl)methyl]piperazin-1-yl}-N-({3-nitro-4-[(2-pyridin-4-ylethyl)amino]phenyl}sulfonyl)-2-phenoxybenzamide]
[1]; GST-Bcl-2, F-Bak peptide probe
  pKi: 9.01
[2]; [4]
  pKi: 7.05

## COc1ccc(S(=O)(=O)NC(=O)c2ccc(N3CCN(Cc4ccccc4-c4ccc(Cl)cc4)CC3)cc2Oc2ccccc2)cc1 [Example 60, 4-{4-[(4′-chloro-1,1′-biphenyl-2-yl)methyl]piperazin-1-yl}-N-[(4-methoxyphenyl)sulfonyl]-2-phenoxybenzamide]
[1]; GST-Bcl-2, F-Bak peptide probe
  pKi: 7.72
[2]; [4]
  pKi: < 6.18

## CC1(C)CCC(CN2CCN(c3ccc(C(=O)NS(=O)(=O)c4ccc(NC[C@H]5CC[C@](C)(O)CC5)c([N+](=O)[O-])c4)c(Oc4cccc5[nH]ncc45)c3)CC2)=C(c2ccc(Cl)cc2)C1 [Example 525, 4-(4-{[2-(4-chlorophenyl)-4,4-dimethylcyclohex-1-en-1-yl]methyl}piperazin-1-yl)-N-[(4-{[(trans-4-hydroxy-4-methylcyclohexyl)methyl]amino}-3-nitrophenyl)sulfonyl]-2-(1H-indazol-4-yloxy)benzamide]
[1]
  pKi: > 11.00
[1]; [3]
  Binding selectivity ratio (Bcl-XL Ki/Bcl-2 Ki): >1898.4
[2]
  pKi: 7.72

## CC1(O)CCC(COc2ncc(S(=O)(=O)NC(=O)c3ccc(N4CCN(CC5=C(c6ccc(Cl)cc6)CCC(F)(F)C5)CC4)cc3Oc3cccc4[nH]ncc34)cc2Cl)CC1 (stereo not drawn) [Example 531, N-({5-chloro-6-[(trans-4-hydroxy-4-methylcyclohexyl)methoxy]pyridin-3-yl}sulfonyl)-4-(4-{[2-(4-chlorophenyl)-5,5-difluorocyclohex-1-en-1-yl]methyl}piperazin-1-yl)-2-(1H-indazol-4-yloxy)benzamide]
[1]
  pKi: > 11.00
[1]; [3]
  Binding selectivity ratio (Bcl-XL Ki/Bcl-2 Ki): >1257.8
[2]
  pKi: 7.90
